What was measured:
Assay type in all cases: biochemical, Epilobium ciliatum
[1] = system: T1, acetolactate synthase (ALS), S biotype; experiment: ALS activity, colorimetric acetoin at […] nm, de-salted leaf extract; settings: read-out: I50
T1 construct: native enzyme in de-salted crude extract of young leaves

[2] = molecular target: T2, glutamine synthetase (GS), S biotype; experiment: GS activity, crude leaf protein extract; settings: read-out: I50
T2 construct: gene GS1; native isoenzymes in crude leaf protein extract (rosette stage); isoforms not resolved

[3] = molecular target: T3, glutamine synthetase (GS), R2 biotype; experiment: GS activity, crude leaf protein extract; settings: stated gain, read-out: I50
T3 construct: gene GS1; native isoenzymes in crude leaf protein extract (rosette stage)

[4] = molecular target: T4, glutamine synthetase (GS), R1 biotype; experiment: GS activity, crude leaf protein extract; settings: read-out: I50
T4 construct: gene GS1; native isoenzymes in crude leaf protein extract (rosette stage); isoforms not resolved; described as glufosinate-sensitive

| SMILES | IC50 [1] [µM] | IC50 [2] [µM] | IC50 [3] [µM] | IC50 [4] [µM] |
| --- | --- | --- | --- | --- |
| COc1cc(OC)nc(NC(=O)NS(=O)(=O)c2ncccc2C(F)(F)F)n1 [flazasulfuron] | 30.9 |  |  |  |
| CP(=O)(O)CCC(N)C(=O)O (stereo not shown) [glufosinate] |  | 18.5 | 1250 | 25.8 |

— article PMC5985439, “Multiple Resistance Evolution in Bipyridylium-Resistant Epilobium ciliatum After Recurrent Selection” (Frontiers in Plant Science, 2018)
